# Measurements published in ChEMBL document CHEMBL4007422 (J Med Chem, 2017).
# Calls of active or inactive are those of the source. The calls are words filed in the database; no cut-off is given here.
# Molecular target: 5-hydroxytryptamine receptor 6 (Homo sapiens, UniProt P50406)
# Assay: Displacement of [3H]-LSD from recombinant human 5-HT6 receptor expressed in HEK293 cells after 60 mins
# Type: cell-based
# Details: not given
# 5-hydroxytryptamine receptor 6, sequence (P50406 whole entry): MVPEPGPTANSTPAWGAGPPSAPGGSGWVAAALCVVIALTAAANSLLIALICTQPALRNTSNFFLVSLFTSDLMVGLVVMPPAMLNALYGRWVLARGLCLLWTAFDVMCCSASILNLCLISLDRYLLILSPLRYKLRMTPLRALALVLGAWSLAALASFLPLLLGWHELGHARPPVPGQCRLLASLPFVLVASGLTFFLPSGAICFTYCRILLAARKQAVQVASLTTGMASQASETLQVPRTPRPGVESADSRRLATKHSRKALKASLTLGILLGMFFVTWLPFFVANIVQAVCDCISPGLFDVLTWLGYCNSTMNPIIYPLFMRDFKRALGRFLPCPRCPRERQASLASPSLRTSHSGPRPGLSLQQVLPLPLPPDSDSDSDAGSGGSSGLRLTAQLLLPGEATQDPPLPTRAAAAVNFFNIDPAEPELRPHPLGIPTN
row,SMILES,Ki
1,CN1CCN(Cc2cn(S(=O)(=O)c3ccccc3)c3ncccc23)CC1,277 nM
2,CN1CCN(Cc2cn(S(=O)(=O)c3ccc(F)cc3F)c3ccccc23)CC1,30 nM
3,CN1CCN(Cc2cn(S(=O)(=O)c3ccc(F)cc3)c3cccc(Cl)c23)CC1,31.2 nM
4,O=S(=O)(c1ccccc1Br)n1cc(CN2CCNCC2)c2ncccc21,95 nM
5,CN1CCN(Cc2cn(S(=O)(=O)c3cccc(Cl)c3)c3ccccc23)CC1,16.3 nM
6,CN1CCN(Cc2cn(S(=O)(=O)c3ccccc3Br)c3ccc([N+](=O)[O-])cc23)CC1,200 nM
7,CN1CCN(Cc2cn(S(=O)(=O)c3ccc(OC(F)(F)F)cc3)c3ccccc23)CC1,150 nM
8,COc1ccc2c(c1)c(CN1CCNCC1)cn2S(=O)(=O)c1ccc(C(C)C)cc1,5.7 nM
9,CN1CCN(Cc2cn(S(=O)(=O)c3ccc(Br)cc3)c3ccc(F)cc23)CC1,9.2 nM
10,CN1CCN(Cc2cn(S(=O)(=O)c3ccc(F)cc3Cl)c3ccccc23)CC1,29 nM
11,CN1CCN(Cc2cn(S(=O)(=O)c3ccc(F)cc3)c3ccc(Cl)cc23)CC1,17.5 nM
12,CN1CCN(Cc2cn(S(=O)(=O)c3ccccc3Br)c3ccc(F)cc23)CC1,12 nM
13,COc1ccc2c(c1)c(CN1CCN(C)CC1)nn2S(=O)(=O)c1ccccc1Br,348 nM
14,CN1CCN(Cc2cn(S(=O)(=O)c3cccc(F)c3)c3ccccc23)CC1,58 nM
15,CCN1CCN(Cc2cn(S(=O)(=O)c3ccccc3Br)c3ccc(OC)cc23)CC1,6.7 nM
16,CN1CCN(Cc2cn(S(=O)(=O)c3ccccc3F)c3ccccc23)CC1,7.8 nM
17,COc1ccc(OC)c(S(=O)(=O)n2cc(CN3CCN(C)CC3)c3ccccc32)c1,91 nM
18,CC(C)c1ccc(S(=O)(=O)n2cc(CN3CCN(C)CC3)c3ccccc32)cc1,6 nM
19,COc1ccc2c(CN3CCN(C)CC3)cn(S(=O)(=O)c3ccc(C(C)C)cc3)c2c1,36.1 nM
20,CN1CCN(Cc2cn(S(=O)(=O)c3ccc(F)c(F)c3)c3ccccc23)CC1,119 nM
21,CCN1CCN(Cc2cn(S(=O)(=O)c3ccc(C(C)C)cc3)c3ccc(OC)cc23)CC1,1.7 nM

row,SMILES,Ki
1,CC(C)Oc1ccc2c(c1)c(CN1CCN(C)CC1)cn2S(=O)(=O)c1ccccc1Br,36.3 nM
2,CN1CCN(Cc2cn(S(=O)(=O)c3ccc(F)cc3)c3ccc(O)cc23)CC1,34.9 nM
3,CN1CCN(Cc2cn(S(=O)(=O)c3ccc(Br)cc3)c3ccccc23)CC1,2.13 nM
4,CC(=O)N1CCN(Cc2cn(S(=O)(=O)c3ccccc3Br)c3ccccc23)CC1,385 nM
5,COc1ccc2c(CN3CCN(C)CC3)cn(S(=O)(=O)c3ccc(F)cc3)c2c1,239 nM
6,CN1CCN(Cc2cn(S(=O)(=O)c3ccc(Br)cc3)c3cc(Cl)ccc23)CC1,59.7 nM
7,CN1CCN(Cc2cn(S(=O)(=O)c3c(Cl)cccc3Cl)c3ccccc23)CC1,100 nM
8,COc1cccc2c1c(CN1CCN(C)CC1)cn2S(=O)(=O)c1ccccc1Br,14.3 nM
9,CN1CCN(Cc2cn(S(=O)(=O)c3ccc(Cl)cc3Cl)c3ccccc23)CC1,28.2 nM
10,CSc1ccc2c(c1)c(CN1CCN(C)CC1)cn2S(=O)(=O)c1ccccc1Br,194 nM
11,Cc1ccc(S(=O)(=O)n2cc(CN3CCN(C)CC3)c3ccccc32)cc1,9.6 nM
12,COc1ccc2c(c1)c(CN1CCN(CCF)CC1)cn2S(=O)(=O)c1ccccc1Br,348 nM
13,CN1CCN(CCc2cn(S(=O)(=O)c3ccccc3Br)c3ccc(Br)cc23)CC1,398 nM
14,CN1CCN(Cc2cn(S(=O)(=O)c3c(F)cccc3F)c3ccccc23)CC1,64 nM
15,COc1cccc2c1c(CN1CCN(C)CC1)cn2S(=O)(=O)c1ccc(F)cc1,18.4 nM
16,O=S(=O)(c1ccccc1Br)n1cc(CN2CCNCC2)c2ccccc21,4.5 nM
17,Cc1ccc(C)c(S(=O)(=O)n2cc(CN3CCN(C)CC3)c3ccccc32)c1,64 nM
18,CC(C)c1ccc(S(=O)(=O)n2cc(CN3CCN(C)CC3)c3cc(O)ccc32)cc1,50 nM
19,CN1CCN(Cc2cn(S(=O)(=O)c3ccccc3Br)c3ccc(O)cc23)CC1,18.7 nM
20,CN1CCN(Cc2cn(S(=O)(=O)c3ccccc3)c3cc(Cl)ccc23)CC1,35.7 nM
21,Cc1c(CN2CCN(C)CC2)c2ccccc2n1S(=O)(=O)c1ccc(F)cc1,55.6 nM

row,SMILES,Ki
1,CN1CCN(Cc2cn(Cc3ccccc3Br)c3ccccc23)CC1,312 nM
2,CN1CCN(Cc2c[nH]c3ccccc23)CC1,482 nM
3,CN1CCN(Cc2cn(S(=O)(=O)c3ccccc3Br)c3ccccc23)CC1,10.2 nM
4,O=S(=O)(c1ccccc1)n1cc(CN2CCNCC2)c2ccccc21,7.5 nM
5,CCN1CCN(Cc2cn(S(=O)(=O)c3ccc(F)cc3)c3ccc(OC)cc23)CC1,20 nM
6,CN1CCN(Cc2cn(S(=O)(=O)c3ccc(C#N)cc3)c3ccccc23)CC1,90.5 nM
7,CN1CCN(Cc2cn(C(=O)c3ccccc3Br)c3ccc(F)cc23)CC1,326 nM
8,COc1ccc2c(c1)c(CN1CCNCC1)cn2S(=O)(=O)c1ccc(F)cc1,6.9 nM
9,CN1CCN(Cc2cn(S(=O)(=O)c3ccccc3Br)c3cccc(Cl)c23)CC1,23.5 nM
10,CN1CCN(Cc2cn(S(=O)(=O)c3ccc(Br)cc3)c3ccc(OCC(F)(F)F)cc23)CC1,96.3 nM
11,CC(C)c1ccc(S(=O)(=O)n2cc(CN3CCN(C)CC3)c3cc(Br)ccc32)cc1,27.6 nM
12,CN1CCN(CCc2cn(S(=O)(=O)c3cccc(Br)c3)c3ccc(Br)cc23)CC1,289 nM
13,CN1CCN(Cc2cn(S(=O)(=O)c3cccc(Br)c3)c3ccccc23)CC1,19 nM
14,O=C(c1ccccc1)N1CCN(Cc2cn(S(=O)(=O)c3ccccc3Br)c3ccccc23)CC1,365 nM
15,CN1CCN(Cc2cn(S(=O)(=O)c3ccc(F)cc3)c3ccc(Br)cc23)CC1,17 nM
16,COc1ccc2c(c1)c(CN1CCN(C)CC1)c(Cl)n2S(=O)(=O)c1ccc(C(C)C)cc1,29.6 nM
17,O=S(=O)(c1ccccc1Br)n1cc(CN2CCN(Cc3ccccc3)CC2)c2ccccc21,133 nM
18,CN1CCN(Cc2cn(S(=O)(=O)c3cccc4ccccc34)c3ccccc23)CC1,11.5 nM
19,CC(C)c1ccc(S(=O)(=O)n2cc(CN3CCN(C)CC3)c3c(Cl)cccc32)cc1,9.2 nM

# Tested on: not listed separately
# Assay: Apparent volume of distribution in Wistar rat at 10 mg/kg, iv by LC-MS/MS analysis
# Type: ADME, organism-based
# Details: in vivo, read-out: Vz
row,SMILES,Vd
1,COc1ccc2c(c1)c(CN1CCN(C)CC1)cn2S(=O)(=O)c1ccc(F)cc1.CS(=O)(=O)O.CS(=O)(=O)O,19.2 L/kg

# Tested on: not listed separately
# Assay: Cmax in Wistar rat at 10 mg/kg, po by LC-MS/MS analysis
# Type: ADME, organism-based
# Design: dose 10 mg/kg, route oral
# Details: in vivo
row,SMILES,Cmax
1,COc1ccc2c(c1)c(CN1CCN(C)CC1)cn2S(=O)(=O)c1ccc(F)cc1.CS(=O)(=O)O.CS(=O)(=O)O,55 ng/mL

# Molecular target: Cytochrome P450 3A4 (Homo sapiens, UniProt P08684)
# Details: not given
# Cytochrome P450 3A4, sequence (P08684 whole entry): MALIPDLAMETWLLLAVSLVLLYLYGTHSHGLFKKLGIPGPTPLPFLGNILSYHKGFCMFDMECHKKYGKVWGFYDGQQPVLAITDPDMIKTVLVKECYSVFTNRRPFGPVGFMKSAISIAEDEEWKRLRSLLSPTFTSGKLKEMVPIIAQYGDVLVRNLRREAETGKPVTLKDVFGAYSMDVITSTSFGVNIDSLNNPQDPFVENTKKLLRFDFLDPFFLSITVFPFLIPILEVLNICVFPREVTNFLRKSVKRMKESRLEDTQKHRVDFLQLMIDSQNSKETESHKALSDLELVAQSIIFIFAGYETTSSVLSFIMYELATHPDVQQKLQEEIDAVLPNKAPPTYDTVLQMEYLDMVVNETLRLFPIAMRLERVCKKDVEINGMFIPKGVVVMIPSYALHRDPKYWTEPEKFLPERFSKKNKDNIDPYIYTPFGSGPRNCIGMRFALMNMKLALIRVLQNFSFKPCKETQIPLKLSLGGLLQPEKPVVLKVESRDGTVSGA
row,SMILES,IC50
1,COc1ccc2c(c1)c(CN1CCN(C)CC1)cn2S(=O)(=O)c1ccc(F)cc1.CS(=O)(=O)O.CS(=O)(=O)O,1710 nM

# Tested on: not listed separately
# Assay: Clearance in Wistar rat at 10 mg/kg, iv by LC-MS/MS analysis
# Type: ADME, organism-based
# Details: in vivo
row,SMILES,clearance
1,COc1ccc2c(c1)c(CN1CCN(C)CC1)cn2S(=O)(=O)c1ccc(F)cc1.CS(=O)(=O)O.CS(=O)(=O)O,92 mL/min/kg

# Molecular target: T1, 5-hydroxytryptamine receptor 2C (Homo sapiens) (UniProt P28335)
# T1 sequence (whole entry): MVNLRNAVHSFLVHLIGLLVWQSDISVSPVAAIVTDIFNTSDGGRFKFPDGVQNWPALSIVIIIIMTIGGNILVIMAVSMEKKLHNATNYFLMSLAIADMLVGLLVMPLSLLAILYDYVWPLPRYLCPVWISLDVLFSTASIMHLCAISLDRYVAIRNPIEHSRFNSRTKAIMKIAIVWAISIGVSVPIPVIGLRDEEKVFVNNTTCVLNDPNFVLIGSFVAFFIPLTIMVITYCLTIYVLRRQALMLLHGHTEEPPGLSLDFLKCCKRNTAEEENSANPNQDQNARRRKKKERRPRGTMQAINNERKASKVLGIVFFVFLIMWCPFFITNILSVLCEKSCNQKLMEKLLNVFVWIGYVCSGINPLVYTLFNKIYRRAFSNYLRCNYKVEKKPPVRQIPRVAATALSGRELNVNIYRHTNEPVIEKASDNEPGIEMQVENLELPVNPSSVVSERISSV
# Assay: Displacement of [3H]-Mesulergine from recombinant human 5-HT2C receptor expressed in HEK293 cell membranes after 180 mins by microbeta scintillation counting analysis
# Details: not given
row,SMILES,Activity
1,COc1ccc2c(c1)c(CN1CCN(C)CC1)cn2S(=O)(=O)c1ccc(F)cc1.CS(=O)(=O)O.CS(=O)(=O)O,inactive

# Molecular target: 5-hydroxytryptamine receptor 4 (Homo sapiens) (UniProt Q13639)
# Assay: Displacement of [3H]-GR113808 from recombinant human 5-HT4B receptor expressed in Chem1 cell membranes after 120 mins by microbeta scintillation counting analysis
# Details: not given
# 5-hydroxytryptamine receptor 4 (Homo sapiens), sequence (Q13639 whole entry): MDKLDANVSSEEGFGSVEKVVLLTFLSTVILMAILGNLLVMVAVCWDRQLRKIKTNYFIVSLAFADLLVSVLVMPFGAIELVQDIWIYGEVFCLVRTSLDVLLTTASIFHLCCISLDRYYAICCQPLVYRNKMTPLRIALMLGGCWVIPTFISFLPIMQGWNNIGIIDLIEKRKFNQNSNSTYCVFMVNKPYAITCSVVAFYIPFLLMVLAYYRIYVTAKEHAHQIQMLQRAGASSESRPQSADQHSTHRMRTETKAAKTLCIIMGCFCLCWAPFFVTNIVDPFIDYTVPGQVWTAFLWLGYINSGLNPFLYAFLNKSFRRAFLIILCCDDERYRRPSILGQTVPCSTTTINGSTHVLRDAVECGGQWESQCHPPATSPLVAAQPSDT
row,SMILES,Activity
1,COc1ccc2c(c1)c(CN1CCN(C)CC1)cn2S(=O)(=O)c1ccc(F)cc1.CS(=O)(=O)O.CS(=O)(=O)O,inactive

# Tested on: not listed separately
# Assay: Half life in Wistar rat at 10 mg/kg, iv by LC-MS/MS analysis
# Type: ADME, organism-based
# Details: in vivo
row,SMILES,half-life
1,COc1ccc2c(c1)c(CN1CCN(C)CC1)cn2S(=O)(=O)c1ccc(F)cc1.CS(=O)(=O)O.CS(=O)(=O)O,2.52 h

# Molecular target: 5-hydroxytryptamine receptor 7 (Rattus norvegicus) (UniProt P32305)
# Assay: Binding affinity to recombinant rat 5-HT7 receptor expressed in CHOK1 cells assessed as inhibition of 5-HT stimulated cAMP accumulation after 4 hrs by luciferase reporter gene assay
# Type: cell-based
# Details: not given
# 5-hydroxytryptamine receptor 7 (Rattus norvegicus), sequence (P32305 whole entry): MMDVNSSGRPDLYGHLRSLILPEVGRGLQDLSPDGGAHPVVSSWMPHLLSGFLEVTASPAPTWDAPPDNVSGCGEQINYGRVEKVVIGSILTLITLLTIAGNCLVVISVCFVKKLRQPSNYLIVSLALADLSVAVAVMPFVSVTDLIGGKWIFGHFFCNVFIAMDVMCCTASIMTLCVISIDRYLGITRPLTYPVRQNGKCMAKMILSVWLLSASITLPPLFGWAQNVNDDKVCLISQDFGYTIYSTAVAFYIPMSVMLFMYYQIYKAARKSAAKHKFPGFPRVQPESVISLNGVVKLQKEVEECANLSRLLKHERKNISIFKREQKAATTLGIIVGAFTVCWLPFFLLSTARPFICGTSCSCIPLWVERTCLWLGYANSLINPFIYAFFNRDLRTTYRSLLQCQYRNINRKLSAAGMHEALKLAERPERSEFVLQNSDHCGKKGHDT
row,SMILES,Activity
1,COc1ccc2c(c1)c(CN1CCN(C)CC1)cn2S(=O)(=O)c1ccc(F)cc1.CS(=O)(=O)O.CS(=O)(=O)O,inactive

# Molecular target: Cytochrome P450 2D6 (Homo sapiens, UniProt P10635)
# Assay: Inhibition of CYP2D6 in human liver microsomes in presence of NADPH by LC-MS/MS analysis
# Details: not given
# Cytochrome P450 2D6, sequence (P10635 whole entry): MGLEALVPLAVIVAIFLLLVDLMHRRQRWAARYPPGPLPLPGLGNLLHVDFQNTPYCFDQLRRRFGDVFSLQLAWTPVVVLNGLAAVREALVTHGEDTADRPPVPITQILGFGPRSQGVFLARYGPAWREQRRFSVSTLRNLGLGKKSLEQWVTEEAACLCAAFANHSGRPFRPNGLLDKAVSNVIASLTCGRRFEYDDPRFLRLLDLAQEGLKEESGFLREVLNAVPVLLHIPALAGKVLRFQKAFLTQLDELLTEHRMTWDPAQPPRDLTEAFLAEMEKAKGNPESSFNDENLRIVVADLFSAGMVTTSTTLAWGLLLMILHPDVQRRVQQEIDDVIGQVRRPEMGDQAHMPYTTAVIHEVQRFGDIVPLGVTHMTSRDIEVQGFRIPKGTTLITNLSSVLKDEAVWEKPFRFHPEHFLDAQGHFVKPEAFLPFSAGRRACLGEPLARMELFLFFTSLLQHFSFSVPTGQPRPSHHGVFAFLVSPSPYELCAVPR
row,SMILES,IC50
1,COc1ccc2c(c1)c(CN1CCN(C)CC1)cn2S(=O)(=O)c1ccc(F)cc1.CS(=O)(=O)O.CS(=O)(=O)O,12600 nM

# Molecular target: T2, 5-hydroxytryptamine receptor 1A (Homo sapiens) (UniProt P08908)
# T2 sequence (whole entry): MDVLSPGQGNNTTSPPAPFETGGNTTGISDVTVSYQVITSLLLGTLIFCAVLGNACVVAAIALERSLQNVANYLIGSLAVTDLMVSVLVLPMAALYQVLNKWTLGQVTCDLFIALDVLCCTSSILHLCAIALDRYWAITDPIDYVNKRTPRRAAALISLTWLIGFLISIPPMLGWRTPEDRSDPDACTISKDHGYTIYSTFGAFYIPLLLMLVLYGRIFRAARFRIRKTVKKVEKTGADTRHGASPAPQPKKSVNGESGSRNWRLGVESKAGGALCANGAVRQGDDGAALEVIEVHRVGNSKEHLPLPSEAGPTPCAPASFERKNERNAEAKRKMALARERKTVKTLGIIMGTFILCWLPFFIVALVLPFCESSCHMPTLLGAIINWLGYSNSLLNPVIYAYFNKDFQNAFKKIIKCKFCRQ
# Assay: Displacement of [3H]-8-OH-DPAT from recombinant human 5-HT1A receptor expressed in HEK293 EBNA cell membranes after 120 mins by microbeta scintillation counting analysis
# Details: not given
row,SMILES,Activity
1,COc1ccc2c(c1)c(CN1CCN(C)CC1)cn2S(=O)(=O)c1ccc(F)cc1.CS(=O)(=O)O.CS(=O)(=O)O,inactive

# Tested on: not listed separately
# Assay: Oral bioavailability in Wistar rat at 10 mg/kg by LC-MS/MS analysis
# Type: ADME, organism-based
# Details: Wistar, in vivo
row,SMILES,bioavailability
1,COc1ccc2c(c1)c(CN1CCN(C)CC1)cn2S(=O)(=O)c1ccc(F)cc1.CS(=O)(=O)O.CS(=O)(=O)O,13.5%

# Tested on: not listed separately
# Assay: AUC (0 to t) in Wistar rat at 10 mg/kg, po by LC-MS/MS analysis
# Type: ADME, organism-based
# Details: Wistar, in vivo
row,SMILES,AUC(0-t)
1,COc1ccc2c(c1)c(CN1CCN(C)CC1)cn2S(=O)(=O)c1ccc(F)cc1.CS(=O)(=O)O.CS(=O)(=O)O,249 ng·h/mL
